Data from patent publication US20190125735A1, “INHIBITION OF P38 MAPK FOR THE TREATMENT OF CANCER” (Board of Regents, The University of Texas System, priority 2015, published 2019).
“Also recorded” adds a separate entry of the source.

What was measured:
4T1 cells = test: 4T1 orthotopic mouse mammary carcinoma model (primary tumor, lung metastasis, CTCs); assay type: in vivo
From the text: In order to investigate this, the 4T1 mouse mammary carcinoma model, which recapitulates many of the characteristics of human breast cancer, was employed.
Tumor progression was monitored weekly using caliper measurements and bioluminescence. Starting week 3 post-implantation, 5 mice per group were sacrificed and surgically excised the primary tumors and lungs were surgically excised. […] This observation was corroborated by caliper measurements (FIG. 15C) and the bioluminescent signal emitted by these tumors (FIGS. 20A, 20B). Indeed, there were no significant differences in the latency and growth rates of the vehicle- and SB203580-treated primary tumors during this timecourse (FIGS. 15C and 20B).
NOD/SCID and BALB/c mice were purchased from the Jackson Laboratory (Bar Harbor, Me., USA). To examine primary tumor formation and spontaneous metastasis, luciferase-labeled 4T1 cells (1×10^4 or 5×10^4) were injected into the inguinal mammary fat-pad of BALB/c mice. For experimental metastasis studies, 0.5×10^6 luciferase-labeled MDA-MB-231 cells were injected into NOD/SCID mice via the tail vein. […] Mice were assessed weekly for tumor growth and metastasis via subcutaneous injection of D-Luciferin (150 mg/kg; Caliper LifeSciences, Hopkinton, Mass., USA) and bioluminescent imaging (IVIS imaging system 200 series; Xenogen Corporation, PerkinElmer, Waltham, Mass., USA). Primary tumor size was measured with a caliper as the product of two perpendicular diameters (mm^2). At the indicated timepoints, primary tumors and lungs were surgically excised, imaged and processed for histology.
Mice were orthotopically injected with red fluorescent protein (RFP)/luciferase-labeled 4T1 cells. Starting week 3 post-injection, blood was collected, via cardiac puncture, in EDTA-coated tubes and treated with Ammonium-Chloride-Potassium lysing buffer (Invitrogen). Cells were cultured in RPMI-1640 medium containing 10% fetal bovine serum and penicillin/streptomycin. RFP-positive colonies were counted after 3 days.

MDA-MB-231 cells = test: Experimental metastasis model, MDA-MB-231 cells via tail vein of NOD/SCID mice; assay type: in vivo, mouse; settings: daily injection beginning 48 h post-implantation
From the text: Since many breast cancer patients harbor occult micrometastases, at the time of diagnosis, and metastasis is often attributed to the systemic dissemination of tumor cells before or during surgical resection of the primary tumor (Pantel et al., 1999; Fehm et al., 2008), it was examined whether p38 inhibition could also prevent colonization and progression to macrometastasis. For this, an experimental metastasis model was employed, which circumvents the early steps of the metastatic cascade. Luciferase-labeled MDA-MB-231 cells were injected via the tail vein of NOD/SCID mice, and the emergence of lung metastases were monitored using bioluminescence. […] To eliminate the possibility of “off-target” effects, mice were intravenously injected with MDA-MB-231 cells expressing either control shRNA or p38 shRNA.
NOD/SCID and BALB/c mice were purchased from the Jackson Laboratory (Bar Harbor, Me., USA). […] Mice were assessed weekly for tumor growth and metastasis via subcutaneous injection of D-Luciferin (150 mg/kg; Caliper LifeSciences, Hopkinton, Mass., USA) and bioluminescent imaging (IVIS imaging system 200 series; Xenogen Corporation, PerkinElmer, Waltham, Mass., USA). Primary tumor size was measured with a caliper as the product of two perpendicular diameters (mm^2). […]

[1] = tested on: HMLE-Snail, HMLE-Twist, MDA-MB-231 and SUM159 cells; test: Sphere formation of mesenchymal mammary cells; assay type: cell-based, human; settings: relative to vehicle-treated cells
Method: It was next ascertained whether p38 inhibition compromises the maintenance of the established EMT phenotype.
(§1) Quantification of invadopodia (Eckert et al., 2011), scratch/wound-healing assays (Sarkar et al., 2015) fluorescence-activated cell sorting (FACS), and sphere-formation assays (Mani et al., 2008) were conducted as described previously.

mesenchymal cells = test: Scratch/wound-healing assay of mesenchymal mammary cells; assay type: cell-based, human
From the text: The effects of p38 inhibition on invasive potential, which strongly correlates with the formation of invadopodia, was investigated. These specialized actin-based cell membrane protrusions secrete matrix metalloproteinases, enabling degradation of the nearby extracellular matrix (Eckert et al., 2011). The formation of invadopodia was quantified by assessing the ability of cells to degrade FITC-conjugated gelatin.
as §1

DU145 cells = test: DU145 subcutaneous tumors in NOD/SCID mice; assay type: in vivo; settings: subcutaneous dosing 5 days/week; SB203580 0.2 μmols per mouse, Enzalutamide 10 mg/kg; vs vehicle
Method: To investigate the effect of inhibition of FOXC2-dependent EMT/CSC attributes on tumor formation in vivo, NOD/SCID mice were subcutaneously injected with DU145 cells and began treatment in vivo, after formation of palpable tumors.
Immediately after sacrificing the mice, ˜100 μl blood was isolated via venipuncture in EDTA-treated collection tubes and stored on ice. Within 30 minutes, the blood was spun down at 1200 rpm for 5 minutes, and the pellet resuspended in 1 ml ACK-lysing buffer (Life Tech) and further incubated for 3-5 minutes. Cells were washed once with PBS, resuspended in RPMI with 10% FBS and pen/strep, and cultured on 10 cm tissue culture dishes. RFP-positive colonies (originating from the labeled DU145 cells injected into mice) were counted after 3-4 days in culture and quantified.
˜4 week-old male NOD.CB17-Prkdcscid/J mice were purchased from the Jackson Laboratory (Maine, USA). […] Once palpable tumors were discernable, tumor-bearing mice were randomly segregated into 4 groups, and drug treatment was initiated every 24 hours for 5 days/week. […] Investigators were blinded to the group allocation while assessing experimental outcomes. At the end of the treatment period, tumors were excised, average diameter calculated using calipers, and tumor weight noted. […]

[2] = tested on: BCR-ABL+ mouse ALL cells seeded on MSCs (OP9 cells); test: Clinical compound library screen, imatinib-pretreated MSC / BCR-ABL+ ALL cell co-culture; assay type: cell-based
Method: The effectiveness of the compounds was determined in preventing cluster formation by microscopy and the toxicity of the compounds by bioluminescence imaging of co-cultured MSCs and leukemic cells.
The clinical compounds library was purchased from the John S. Dunn Gulf Coast Consortium for Chemical Genomics (Houston, Tex.). […] Then, luciferase-labeled BCR-ABL+ mouse ALL cells were seeded on to the MSCs. Treatment was continued for 1 day, and the samples were evaluated via phase-contrast microscopy for the formation of leukemic cell clusters underneath the pretreated MSCs. To determine the compounds' toxicity in MSCs or leukemic cells, we examined the MSC/ALL cell co-cultures via microscopy and/or bioluminescence imaging.
Phase-contrast images of co-cultured MSCs and ALL cells were obtained using an Axio Observer.Z1 microscope, an AxioCam MR camera, and AxioVision software (Zeiss, Oberkochen, Germany). For screening, a cluster was defined as a group of more than five leukemic cells under the MSCs. The total number of leukemic cell clusters was the average number of clusters from three different fields (10× objective). For post-screening experiments, a cluster was defined as a group of more than 10 leukemic cells under the MSCs. The total number of leukemic cell clusters was the average number of clusters from 10 different fields (10× objective).

For C[S+]([O-])c1ccc(-c2nc(-c3ccc(F)cc3)c(-c3ccncc3)[nH]2)cc1 (centres unmarked) [SB203580, 4-(4-Fluorophenyl)-2-(4-methylsulfinylphenyl)-5-(4-pyridyl) 1H-imidazole], the Primary tumor size (4T1 cells; 4T1 cells, daily treatment, weeks 3-6) was “primary tumors of a similar size relative to vehicle-treated counterparts”, the “Lung metastases (bioluminescent signal)” value (4T1 cells; 4T1 cells, systemic daily treatment) was “strikingly fewer lung metastases” and the “Metastatic burden (lung)” value (4T1 cells; mice harboring 4T1-FOXC2(S367E) cells) was “failed to significantly reduce the metastatic burden”. The “Reduction of incidence of lung metastases compared to vehicle” value (4T1 cells; mice harboring 4T1-vector cells, daily SB203580) was over 20 fold, the Primary tumor growth (4T1 cells; mice harboring 4T1-vector or 4T1-FOXC2(S367E) cells) was “no significant differences in primary tumor growth” and the “Microvessel density of primary tumors (CD31 immunohistochemistry)” value (4T1 cells; vs vehicle-treated) was “did not reveal significant differences”. For the same molecule, the “CTCs recovered from blood” value (4T1 cells; week 6 post-implantation) was “very few CTCs were recovered”, the “CTCs recovered from blood” value (4T1 cells; weeks 3-5 post-implantation) was “no CTCs were recovered from SB203580-treated mice until week 5” and the Event-free survival (MDA-MB-231 cells) was “extended event-free survival”. For the same molecule, the “Metastatic burden (lung)” value (MDA-MB-231 cells) was “significantly reduced the metastatic burden”, the Sphere-formation [1] was “substantially reduced sphere-formation” and the Migratory capacity (mesenchymal cells) was “markedly reduced the migratory capacity of mesenchymal cells”. For the same molecule, the “Tumor size (volume and weight)” value (DU145 cells) was “no appreciable change in tumor size” and the “Imatinib-induced leukemic cell cluster formation” value [2] was “directly prevented imatinib-induced leukemic cell cluster formation; also recorded: potently inhibited the formation of imatinib-induced leukemic cell clusters”.
